The text below walks through data of patent US12157730B2, “Heteroaryl derivative, method for producing same, and pharmaceutical composition comprising same as effective component” (VORONOI INC., priority 2019, dated 2024).

This assay addresses T1, Ba/F3 cell EGFR Exon20 ins NPH (Homo sapiens, UniProt P00533, INS773NPH).
T1 construct: expressed in transfected cells; host or cells: Ba/F3
The assay can be described thus: Ba/F3 cell proliferation suppression, EGFR Exon20 ins NPH. The class given is cell-based. The following applies: GI50 class; Ba/F3 cell line with NPH inserted at Exon20 of EGFR; 72 hours. The method in brief:
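Cells (3000–5000/well) plated 24 h before compound, 12-point 3-fold dilutions at 0.3 nM to 50 um final; Ba/F3 lines grown with 5 ng/ml IL-3. Viability by CellTiter-Glo luminescence after 72 h, growth ratio vs control, GI50 from curves; triplicate.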

SMILES strings stand for the structures.

`C=CC(=O)Nc1cc(Nc2cc(N3OCC[C@@H]3c3cccc(Cl)c3F)ncn2)c(OC)cc1N1CCC(N2CCN(CC)CC2)CC1` [compound 913, N-(5-((6-((R)-3-(3-chloro-2-fluorophenyl)isoxazolidine-2-yl)pyrimidine-4-yl)amino)-2-(4-(4-ethylpiperazine-1-yl)piperidine-1-yl)-4-methoxyphenyl) acrylamide]: the “Ba/F3 (NPH) Activity” value is given as “A (GI50 < 50 nM)”.
Take `C=CC(=O)Nc1cc(Nc2cc(N3OCC[C@@H]3c3c(F)ccc(F)c3Cl)ncn2)c(OC)cc1N1CCN(C2CC2)CC1` [compound 691, N-(5-((6-((R)-3-(2-chloro-3,6-difluorophenyl)isoxazolidine-2-yl)pyrimidine-4-yl)amino)-2-(4-cyclopropylpiperazine-1-yl)-4-methoxyphenyl) acrylamide]: the “Ba/F3 (NPH) Activity” value was “B (50 nM ≤ GI50 < 500 nM)”.
Regarding `C=CC(=O)Nc1cc(Nc2cc(N3OCC[C@@H]3c3ccc(F)c(Cl)c3F)ncn2)c(OC)cc1N1C[C@H](C)O[C@@H](C)C1` [compound 658, N-(5-((6-((R)-3-(3-chloro-2,4-difluorophenyl)isoxazolidine-2-yl)pyrimidine-4-yl)amino)-2-((2S,6S)-2,6-dimethylmorpholino)-4-methoxyphenyl) acrylamide], the “Ba/F3 (NPH) Activity” value is “B (50 nM ≤ GI50 < 500 nM)”.
Consider `C=CC(=O)Nc1cc(Nc2cc(N3OCC[C@@H]3c3cccc(F)c3F)ncn2)c(OC)cc1N1CCO[C@@H](C)C1` [compound 888, N-(5-((6-((R)-3-(2,3-difluorophenyl)isoxazolidine-2-yl)pyrimidine-4-yl)amino)-4-methoxy-2-((S)-2-methylmorpholino)phenyl)acrylamide], for which the “Ba/F3 (NPH) Activity” value is on record as “A (GI50 < 50 nM)”.
Consider `C=CC(=O)Nc1cc(Nc2cc(N3OCC[C@@H]3c3c(F)ccc(F)c3F)ncn2)c(OC)cc1N1CCC(N2CCO[C@H](C)C2)CC1` [compound 646, N-(4-methoxy-2-(4-((R)-2-methylmorpholino)piperidine-1-yl)-5-((6-((R)-3-(2,3,6-trifluorophenyl)isoxazolidine-2-yl)pyrimidine-4-yl)amino)phenyl)acrylamide], for which the “Ba/F3 (NPH) Activity” value is listed as “A (GI50 < 50 nM)”.
Then `C=CC(=O)Nc1cc(Nc2cc(N3OCC[C@@H]3c3ccc(F)c(Cl)c3)ncn2)c(OC)cc1N1CCC(N2C[C@H](C)N(C3CC3)C[C@@H]2C)CC1` [Example 121, N-(5-((6-((R)-3-(3-chloro-4-fluorophenyl)isoxazolidine-2-yl)pyrimidine-4-yl)amino)-2-(4-((2S,5S)-4-cyclopropyl-2,5-dimethylpiperazine-1-yl)piperidine-1-yl)-4-methoxyphenyl) acrylamide], with “A (GI50 < 50 nM)”.
Then `C=CC(=O)Nc1cc(Nc2cc(N3OCC[C@@H]3c3cc(F)cc(F)c3)ncn2)c(OC)cc1N1CCC(N2C[C@H]3C[C@@H]2CN3CC)CC1` [Example 267, N-(5-((6-((R)-3-(3,5-difluorophenyl)isoxazolidine-2-yl)pyrimidine-4-yl)amino)-2-(4-((1R,4R)-5-ethyl-2,5-diazabicyclo[2.2.1]heptane-2-yl)piperidine-yl)-4-1-methoxyphenyl) acrylamide], with “A (GI50 < 50 nM)”.
Regarding `C=CC(=O)Nc1cc(Nc2cc(N3OCC[C@@H]3c3ccc(Cl)c(Cl)c3F)ncn2)c(OC)cc1N1CCC(N2C[C@@H](C)O[C@@H](C)C2)CC1` [compound 773, N-(5-((6-((R)-3-(3,4-dichloro-2-fluorophenyl)isoxazolidine-2-yl)pyrimidine-4-yl)amino)-2-(4-((2S,6R)-2,6-dimethylmorpholino)piperidine-1-yl)-4-methoxyphenyl) acrylamide], the “Ba/F3 (NPH) Activity” value is “B (50 nM ≤ GI50 < 500 nM)”.
Take `C=CC(=O)Nc1cc(Nc2cc(N3OCC[C@@H]3c3cccc(Cl)c3Cl)ncn2)c(OC)cc1N1CCC(N(C)C)CC1` [compound 476, N-(5-((6-((R)-3-(2,3-dichlorophenyl)isoxazolidine-2-yl)pyrimidine-4-yl)amino)-2-(4-(dimethylamino)piperidine-1-yl)-4-methoxyphenyl) acrylamide]: the “Ba/F3 (NPH) Activity” value was “A (GI50 < 50 nM)”.
For `C=CC(=O)Nc1cc(Nc2cc(N3OCC[C@@H]3c3cc(F)ccc3F)ncn2)c(OC)cc1N1CCC(N2C[C@@H](C)O[C@@H](C)C2)CC1` [compound 714, N-(5-((6-((R)-3-(2,5-difluorophenyl)isoxazolidine-2-yl)pyrimidine-4-yl)amino)-2-(4-((2S,6R)-2,6-dimethylmorpholino)piperidine-1-yl)-4-methoxyphenyl) acrylamide], the “Ba/F3 (NPH) Activity” value is listed as “A (GI50 < 50 nM)”.
`C=CC(=O)Nc1cc(Nc2cc(N3OCC[C@@H]3c3ccc(F)c(Cl)c3)ncn2)c(OC)cc1N1CCOCC1` [compound 824, N-(5-((6-((R)-3-(3-chloro-4-fluorophenyl)isoxazolidine-2-yl)pyrimidine-4-yl)amino)-4-methoxy-2-morpholinophenyl) acrylamide]: the “Ba/F3 (NPH) Activity” value was “A (GI50 < 50 nM)”.
For `C=CC(=O)Nc1cc(Nc2cc(N3OCC[C@@H]3c3cc(F)ccc3F)ncn2)c(OC)cc1N1CCN(C2CC2)C[C@H]1C` [compound 880, N-(2-((R)-4-cyclopropyl-2-methylpiperazine-1-yl)-5-((6-((R)-3-(2,5-difluorophenyl)isoxazolidine-2-yl)pyrimidine-4-yl)amino)-4-methoxyphenyl) acrylamide], the “Ba/F3 (NPH) Activity” value is reported as “A (GI50 < 50 nM)”.
Turning to `C=CC(=O)Nc1cc(Nc2cc(N3OCC[C@@H]3c3ccc(F)cc3)ncn2)c(OC)cc1N1CCC(N2C[C@H]3CCN(C)[C@H]3C2)CC1` [compound 541, N-(5-((6-((R)-3-(4-fluorophenyl)isoxazolidine-2-yl)pyrimidine-4-yl)amino)-4-methoxy-2-(4-((3aR,6aR)-1-methylhexahydropyrrolo [3,4-b]pyrrole-5(1H)-yl)piperidine-1-yl)phenyl)acrylamide], the “Ba/F3 (NPH) Activity” value is recorded as “A (GI50 < 50 nM)”.
As for `C=CC(=O)Nc1cc(Nc2cc(N3OCC[C@@H]3c3c(F)ccc(F)c3F)ncn2)c(OC)cc1N1CCC(N2C[C@@H]3C[C@H]2CO3)CC1` [compound 642, N-(2-(4-((1S,4S)-2-oxa-5-azabicyclo[2.2.1]heptane-5-yl)piperidine-1-yl)-4-methoxy-5-((6-((R)-3-(2,3,6-trifluorophenyl)isoxazolidine-2-yl)pyrimidine-4-yl)amino)phenyl)acrylamide], the “Ba/F3 (NPH) Activity” value is on record as “A (GI50 < 50 nM)”.
Regarding `C=CC(=O)Nc1cc(Nc2cc(N3OCC[C@@H]3c3cccs3)ncn2)c(OC)cc1N(C)CCN(C)C` [compound 928, N-(2-((2-(dimethylamino)ethyl) (methyl)amino)-4-methoxy-5-((6-((R)-3-(thiophene-2-yl)isoxazolidine-2-yl)pyrimidine-4-yl)amino)phenyl)acrylamide], the “Ba/F3 (NPH) Activity” value is “A (GI50 < 50 nM)”.
Turning to `C=CC(=O)Nc1cc(Nc2cc(N3OCC[C@@H]3c3ccc(C)nc3)ncn2)c(OC)cc1N1CCC(N2CC[C@@H](N(C)C)C2)CC1` [Example 231, N-(2-(4-((R)-3-(dimethylamino)pyrolidine-1-yl)piperidine-1-yl)-4-methoxy-5-((6-((R)-3-(6-methylpyridine-3-yl)isoxazolidine-2-yl)pyrimidine-4-yl)amino)phenyl)acrylamide], the “Ba/F3 (NPH) Activity” value is given as “B (50 nM ≤ GI50 < 500 nM)”.
With `C=CC(=O)Nc1cc(Nc2cc(N3OCC[C@@H]3c3cc(F)cc(F)c3)ncn2)c(OC)cc1N1CCC(N2CCN(C)[C@@H](C)C2)CC1` [compound 760, N-(5-((6-((R)-3-(3,5-difluorophenyl)isoxazolidine-2yl)pyrimidine-4-yl)amino)-2-(4-((S)-3,4-dimethylpiperazine-1-yl)piperidine-1-yl)-4-methoxyphenyl) acrylamide], the “Ba/F3 (NPH) Activity” value is on record as “A (GI50 < 50 nM)”.
As for `C=CC(=O)Nc1cc(Nc2cc(N3OCC[C@@H]3c3ccc(Cl)c(F)c3)ncn2)c(OC)cc1N1CCC(N2C[C@@H](C)O[C@@H](C)C2)CC1` [compound 709, N-(5-((6-((R)-3-(4-chloro-3-fluorophenyl)isoxazolidine-2-yl)pyrimidine-4-yl)amino)-2-(4-((2S,6R)-2,6-dimethylmorpholino)piperidine-1-yl)-4-methoxyphenyl) acrylamide], the “Ba/F3 (NPH) Activity” value is listed as “A (GI50 < 50 nM)”.
Consider `C=CC(=O)Nc1cc(Nc2cc(N3OCC[C@@H]3c3cccc(F)c3)ncn2)c(OC)cc1N1CCC(N2CC[C@H](N(C)C)C2)CC1` [compound 744, N-(2-(4-((S)-3-(dimethylamino)pyrolidine-1-yl)piperidine-1-yl)-5-((6-((R)-3-(3-fluorophenyl)isoxazolidine-2-yl)pyrimidine-4-yl)amino)-4-methoxyphenyl) acrylamide], for which the “Ba/F3 (NPH) Activity” value is “A (GI50 < 50 nM)”.
Regarding `C=CC(=O)Nc1cc(Nc2cc(N3OCC[C@@H]3c3ccccc3)ncn2)c(OC)cc1N1CCC(N2C[C@@H]3C[C@H]2CN3CC)CC1` [compound 737, N-(2-(4-((1S,4S)-5-ethyl-2,5-diazabicyclo [2.2.1]heptane-2-yl)piperidine-1-yl)-4-methoxy-5-((6-((R)-3-phenylisoxazolidine-2-yl)pyrimidine-4-yl)amino)phenyl) acrylamide], the “Ba/F3 (NPH) Activity” value is on record as “A (GI50 < 50 nM)”.
Then `C=CC(=O)Nc1cc(Nc2cc(N3OCC[C@@H]3c3cccc(Cl)c3F)ncn2)c(OC)cc1N1CCC(N2CCN(C3CC3)C[C@H]2C)CC1` [Example 149, N-(5-((6-((R)-3-(3-chloro-2-fluorophenyl)isoxazolidine-2-yl)pyrimidine-4-yl)amino)-2-(4-((R)-4-cyclopropyl-2-methylpiperazine-1-yl)piperidine-1-yl)-4-methoxyphenyl) acrylamide], with “A (GI50 < 50 nM)”; and `C=CC(=O)Nc1cc(Nc2cc(N3OCC[C@@H]3c3ccc(Cl)cc3)ncn2)c(OC)cc1N1CC[C@@H](N(C)C)C1` [compound 695, N-(5-((6-((R)-3-(4-chlorophenyl)isoxazolidine-2-yl)pyrimidine-4-yl)amino)-2-((R)-3-(dimethylamino)pyrolidine-1-yl)-4-methoxyphenyl) acrylamide], with “B (50 nM ≤ GI50 < 500 nM)”.
